The assay concerns 817829-284-R-J1-PDC complex spheroids, viability. Description: Anticancer human tumor 817829-284-R-J1-PDC patient-derived colon adenocarcinoma cell line growth inhibition [GQUAD]. The conditions noted are these: for viability, T/C: stronger effect = lower value. An excerpt: DNA G-quadruplex Stabilizer Agents in Combinations in Complex Spheroids
A high-throughput screen of multi-cell type tumor spheroids was designed to identify active combinations of DNA G-quadruplex stabilizer agents and targeted small molecules. Complex spheroids include a stromal component modeled by human endothelial cells (HUVEC) and fibroblasts modeled by human mesenchymal stem cells (MSCs). The concentration ranges selected for each drug and investigational agent were based upon clinically achievable concentrations if the clinical Cmax of the agent was known.
Compounds. The drugs and investigational agents: pidnarulex (CX-5461; NSC782164), APTO-253 (NSC789042), BRACO-19 (NSC847499), peposertib (NSC802822), ceralasertib (NSC780249), elimusertib (NSC800525), camonsertib (NSC841442), AZD-1390 (NSC803789), olaparib (NSC753686), talazoparib (NSC767125), ART-558 (NSC835418), sotorasib (NSC818433), MRTX-1133 (NSC836407), SN-38 (NSC673596), topotecan (NSC609699), etoposide (NSC141540), doxorubicin (NSC123127), gemcitabine (NSC613327), 5-fluorouracil (NSC19893), paclitaxel (NSC125973), vemurafenib (NSC761431), panobinostat (NSC761190), R-306465 (JNJ-16241199; NSC773264), adavosertib (NSC754352), TP-3654 (NSC805149), carboplatin (NSC241240), KSQ-4279 (NSC840948), and staurosporine (NSC755774) were obtained from the National Cancer Institute (NCI) Developmental Therapeutics Program Chemical Repository (34). The FDA-approved anticancer drug set is available from the NCI Developmental Therapeutics Program. […] The stock solutions were prepared in dimethyl sulfoxide (DMSO, Sigma-Aldrich, St. Louis, MO, cat. D2650) at 800-fold the tested concentration and stored at -70 degrees C prior to their use. All drugs and investigational agents were tested over a range starting from a high concentration at or near the clinical Cmax and decreasing in half-log increments. If the clinical Cmax for an agent had not been determined, the highest concentration tested was 10 microM.
2.3 Cell Culture. All cells were maintained in an incubator at 37 degrees C and 5% CO2 with 95% humidity. The PDC lines were cultured according to standard operating procedures established by the NCI PDMR. All PDCs were thawed and cultured in Matrigel-coated flasks prepared with a working solution of 1X Ham's F-12 nutrient mix, without supplementation (Invitrogen, cat. 11765054), 100 U/mL penicillin-streptomycin (Invitrogen, cat. 15140122), and 2.5% Matrigel (Corning Inc., cat. 354248) for the first three passages. The 857933-349-R-J2-PDC line was cultured in 6C/Colon 1B media, which includes advanced DMEM/F-12 (Thermo Fisher Scientific, cat. 12634028), 10 mM HEPES (Thermo Fisher Scientific, cat. 15630080), 1X GlutaMAX supplement (Thermo Fisher Scientific, cat. 35050061), 0.1 mg/mL primocin (InvivoGen, cat. ant-pm-2), 10% defined fetal bovine serum, heat inactivated (HyClone Laboratories Inc., cat. SH30070.03HI), 50% L-WRN conditioned media (ATCC, cat. CRL-3276), 1.25 mM N-Acetyl-L-cysteine (Sigma-Aldrich, cat. A9165), 10 mM nicotinamide (Sigma-Aldrich, cat. N0636), 1X B-27 supplement (Thermo Fisher Scientific, cat. 17504044), 1X N-2 supplement (Thermo Fisher Scientific, cat. 17502048), 10 microM Y-27632 dihydrochloride (Tocris Bioscience, cat. 1254), and 50 ng/mL human EGF recombinant protein (Thermo Fisher Scientific, cat. PHG0311). The 485176-168-R4-J1-PDC line was cultured in Panc media, which includes all 6C/Colon 1B media components plus 100 ng/mL human FGF-10 (Thermo Fisher Scientific, cat. 100-26), 500 nM SB-431542 (Selleckchem, cat. S1067), and gastrin (Tocris, cat. 3006).
[…]

Where [1] appears, read: compound alone, run of 02/20/2024.
[2] abbreviates: curve of first compound, second compound 0.0316 µM.
Where [3] appears, read: curve of first compound, second compound 0.1 µM.
Setting [4] is: curve of first compound, second compound 0.316 µM.
Setting [5] is: curve of first compound, second compound 1 µM.
Where [6] appears, read: curve of first compound, second compound 3.16 µM.
[7] abbreviates: curve of first compound, second compound 10 µM.
[8] abbreviates: second compound 0.0316 µM, first compound 0.0316 µM.
[9] abbreviates: second compound 0.0316 µM, first compound 0.1 µM.
Where [10] appears, read: second compound 0.0316 µM, first compound 0.316 µM.
[11] abbreviates: second compound 0.0316 µM, first compound 1 µM.
The mark [12] stands for this setting: second compound 0.0316 µM, first compound 3.16 µM.
Setting [13] is: second compound 0.0316 µM, first compound 10 µM.
The mark [14] stands for this setting: second compound 0.1 µM, first compound 0.0316 µM.
[15] abbreviates: second compound 0.1 µM, first compound 0.1 µM.
Where [16] appears, read: second compound 0.1 µM, first compound 0.316 µM.
The mark [17] stands for this setting: second compound 0.1 µM, first compound 1 µM.
Setting [18] is: second compound 0.1 µM, first compound 3.16 µM.
Where [19] appears, read: second compound 0.1 µM, first compound 10 µM.
[20] abbreviates: second compound 0.316 µM, first compound 0.0316 µM.
[21] abbreviates: second compound 0.316 µM, first compound 0.1 µM.
Setting [22] is: second compound 0.316 µM, first compound 0.316 µM.
Where [23] appears, read: second compound 0.316 µM, first compound 1 µM.
The mark [24] stands for this setting: second compound 0.316 µM, first compound 3.16 µM.
[25] abbreviates: second compound 0.316 µM, first compound 10 µM.
Setting [26] is: second compound 1 µM, first compound 0.0316 µM.
Where [27] appears, read: second compound 1 µM, first compound 0.1 µM.
[28] abbreviates: second compound 1 µM, first compound 0.316 µM.
Where [29] appears, read: second compound 1 µM, first compound 1 µM.
Setting [30] is: second compound 1 µM, first compound 3.16 µM.
Setting [31] is: second compound 1 µM, first compound 10 µM.
Where [32] appears, read: second compound 3.16 µM, first compound 0.0316 µM.
Setting [33] is: second compound 3.16 µM, first compound 0.1 µM.
[34] abbreviates: second compound 3.16 µM, first compound 0.316 µM.
Setting [35] is: second compound 3.16 µM, first compound 1 µM.
Where [36] appears, read: second compound 3.16 µM, first compound 3.16 µM.
[37] abbreviates: second compound 3.16 µM, first compound 10 µM.
The mark [38] stands for this setting: second compound 10 µM, first compound 0.0316 µM.
The mark [39] stands for this setting: second compound 10 µM, first compound 0.1 µM.
Setting [40] is: second compound 10 µM, first compound 0.316 µM.
Setting [41] is: second compound 10 µM, first compound 1 µM.
[42] abbreviates: second compound 10 µM, first compound 3.16 µM.
[43] abbreviates: second compound 10 µM, first compound 10 µM.

Values joined by “and” are separate entries in the source; they are usually repeats but may differ in a detail not shown here. Equal values may be shown once.
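Note: spheroids exposed to agents for 7 days before readout.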
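Throughout, for viability, T/C: percent viability relative to DMSO vehicle control taken as 100%.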

Take `CC(C)n1c(=O)n(C)c2cnc3cc(F)c(-c4ccc(OCCCN5CCCCC5)nc4)cc3c21`: the viability, T/C is 106% and 107% and 100% (compound 0.0316 µM); 101% and 102% and 97.5% (compound 0.1 µM); 95.1% and 105% and 102% (compound 0.316 µM); 89.8% and 100% and 89.2% (compound 1 µM); 104% and 113% and 101% (compound 3.16 µM); 107% and 103% and 60.3% (compound 10 µM). Moreover, the IC50 (curve of compound) is greater than 10000 nM.

Regarding `Cc1[nH]c2ccc(F)cc2c1-c1nc2c3cccnc3c3ncccc3c2[nH]1`, the viability, T/C is 103% [middle of 12 runs] (compound 0.1 µM), 106% [middle of 12 runs] (compound 0.316 µM) and 99.8% [middle of 12 runs] (compound 1 µM). In addition, under setting [1], the IC50 is 3.3 µM [middle of 8 runs].

As for `CC(C)n1c(=O)n(C)c2cnc3cc(F)c(-c4ccc(OCCCN5CCCCC5)nc4)cc3c21` + CN(C)c1ccc(Nc2c3ccc(NC(=O)CCN4CCCC4)cc3nc3cc(NC(=O)CCN4CCCC4)ccc23)cc1, the IC50 reads like this: under setting [2], greater than 10000 nM; under setting [3], greater than 10000 nM; under setting [4], greater than 10000 nM; under setting [5], greater than 10000 nM; under setting [6], greater than 10000 nM; under setting [7], 414 nM. For the same compound, the viability, T/C under setting [8] was 92.8%; the viability, T/C under setting [9] is 104%; the viability, T/C under setting [10] was 108%; the viability, T/C under setting [11] is 107%; the viability, T/C under setting [12] is 105%; the viability, T/C under setting [13] was 116%. The viability, T/C is 101% under setting [14]; 107% under setting [15]; 94.3% under setting [16]; 101% under setting [17]; 105% under setting [18]; 108% under setting [19]. The viability, T/C was 96.8% under setting [20]; 98.3% under setting [21]; 96% under setting [22]; 102% under setting [23]; 104% under setting [24]; 110% under setting [25]. The viability, T/C is 94.1% under setting [26]; 109% under setting [27]; 97.6% under setting [28]; 96.2% under setting [29]; 91.1% under setting [30]; 94.6% under setting [31]. The viability, T/C under setting [32] is 90.8%; the viability, T/C under setting [33] is 105%; the viability, T/C under setting [34] was 89.4%; the viability, T/C under setting [35] is 70.8%; the viability, T/C under setting [36] is 61.1%; the viability, T/C under setting [37] was 54.5%. Besides, the viability, T/C is, setting by setting: under setting [38], 72.7%; under setting [39], 61.9%; under setting [40], 51.7%; under setting [41], 46%; under setting [42], 21%; under setting [43], 13.2%.

For `COc1cccc2c1C(=O)c1c(O)c3c(c(O)c1C2=O)CC(O)(C(=O)CO)CC3OC1CC(N)C(O)C(C)O1` (stereo unspecified), the viability, T/C is, setting by setting: (compound 0.0316 µM) 100% and 82% and 106%; (compound 0.1 µM) 32.7% and 42.4% and 30.9%; (compound 0.316 µM) 30.1% and 39% and 26.2%; (compound 1 µM) 9.58% and 10.5% and 8.06%; (compound 3.16 µM) 0.57% and 0.58% and 0.61%; (compound 10 µM) 0.32% and 0.4% and 0.19%. In addition, under “curve of compound”, the half-inhibitory concentration (IC50) was 84.7 nM and 99.1 nM and 82.1 nM.

In the case of `Cc1cnc(CNC(=O)c2c(=O)c3ccc(N4CCCN(C)CC4)nc3n3c2sc2ccccc23)cn1`, the viability, T/C runs as follows: (compound 0.0316 µM) 90.4% [middle of 12 runs]; (compound 0.1 µM) 39.5% [middle of 12 runs]; (compound 0.316 µM) 29.2% [middle of 12 runs]; (compound 1 µM) 23.6% [middle of 12 runs]; (compound 3.16 µM) 15.9% [middle of 12 runs]; (compound 10 µM) 0.15% [middle of 8 runs]. Further, the IC50 under setting [1] was 85.8 nM [middle of 11 runs].

Consider `CN(C)c1ccc(Nc2c3ccc(NC(=O)CCN4CCCC4)cc3nc3cc(NC(=O)CCN4CCCC4)ccc23)cc1`, for which the viability, T/C was 102% [middle of 12 runs] (compound 0.0316 µM); 99.2% [middle of 12 runs] (compound 0.1 µM); 97.7% [middle of 12 runs] (compound 0.316 µM); 102% [middle of 12 runs] (compound 1 µM); 100% [middle of 12 runs] (compound 3.16 µM); 93.7% [middle of 12 runs] (compound 10 µM). Further, the IC50 (compound alone, run of 02/26/2024) is greater than 10000 nM.

As for `COc1cccc2c1C(=O)c1c(O)c3c(c(O)c1C2=O)CC(O)(C(=O)CO)CC3OC1CC(N)C(O)C(C)O1` (stereo unspecified) + Cc1[nH]c2ccc(F)cc2c1-c1nc2c3cccnc3c3ncccc3c2[nH]1, the IC50 is 88.3 nM under setting [2]; 94.3 nM under setting [3]; 98.7 nM under setting [4]; 84.4 nM under setting [5]; 64 nM under setting [6]; less than 31.6 nM under setting [7]. For the same compound, the viability, T/C under setting [8] was 106%; the viability, T/C under setting [9] was 31.4%; the viability, T/C under setting [10] was 35.2%; the viability, T/C under setting [11] was 9.62%; the viability, T/C under setting [12] is 0.98%; the viability, T/C under setting [13] is 0.2%. Besides, the viability, T/C reads like this: under setting [14], 79.8%; under setting [15], 46.1%; under setting [16], 29.7%; under setting [17], 14%; under setting [18], 0.63%; under setting [19], 0.15%. The viability, T/C by setting is: under setting [20], 86.2%; under setting [21], 44.8%; under setting [22], 32.1%; under setting [23], 14.2%; under setting [24], 0.67%; under setting [25], 0.16%. Besides, the viability, T/C is, setting by setting: under setting [26], 80.5%; under setting [27], 38%; under setting [28], 31.3%; under setting [29], 13.7%; under setting [30], 1%; under setting [31], 0.19%. The viability, T/C by setting is: under setting [32], 80.9%; under setting [33], 26.3%; under setting [34], 18.9%; under setting [35], 7.18%; under setting [36], 0.69%; under setting [37], 0.27%. Besides, the viability, T/C was 22.1% under setting [38]; 12.8% under setting [39]; 11.3% under setting [40]; 3.41% under setting [41]; 0.48% under setting [42]; 0.46% under setting [43].

Values taken from PubChem BioAssay AID2060503 (Molecular Pharmacology Branch, DTP, NCI, 2025).
